In US11510943B2, “Chemotherapeutic agent comprising combination of alexidine dihydrochloride and sodium pentaborate pentahydrate” (YEDITEPE UNIVERSITESI, priority 2018, dated 2022):
“Also recorded” adds a separate entry of the source. Where a name gives a salt, the structure may show the parent alone.

Experiments:
[1] = test system: pancreatic cancer cells (MIA PaCa-2, AsPc-1 and Psn-1); experiment: colorimetric tetrazolium salt (MTS) viability assay, pancreatic cancer cells together; settings: Pancreatic cancer cell, 48 h, read-out: viability of the pancreatic cancer cells
Excerpt: (§1) This value is 10-20% more than the chemotherapeutic effect of alexidine dihydrochloride alone.

[2] = test system: healthy cells (hTert-HPNE, HNPC, hFSSCs, HUVEC); experiment: toxicity analysis (MTS viability assay), healthy cells together; format: cell-based
[3] = test system: pancreatic cancer cell (MIA PaCa-2); experiment: colorimetric tetrazolium salt (MTS) viability assay, MIA PaCa-2; settings: Homo sapiens, MIA PaCa-2, 48 h, read-out: viability of MIA PaCa-2 cells
Excerpt: as §1

[4] = solubility in dimethylsulfoxide; format: physicochemical; settings: organic solvent or mixture
Method: The chemotherapeutic agent of the present invention comprises a combination of alexidine dihydrochloride and sodium pentaborate pentahydrate and induces apoptosis on pancreatic cancer cells. Alexidine dihydrochloride is a compound having a molecular weight of 581.71 gram/mol and the chemical formula of C26H56N10 ·2HCl and it is dissolved in dimethylsulfoxide of 10 mg/ml or above.

[5] = test system: pancreatic cancer cell (Psn-1); experiment: colorimetric tetrazolium salt (MTS) viability assay, Psn-1
Excerpt: as §1

[6] = test system: healthy human pancreatic cell (hTert-HPNE); experiment: colorimetric tetrazolium salt (MTS) viability assay, hTert-HPNE; format: cell-based; settings: AD alone, 2.5 μM, 48 hours of incubation
[7] = test system: pancreatic cancer cell (AsPc-1); experiment: colorimetric tetrazolium salt (MTS) viability assay, AsPc-1
Excerpt: as §1

[8] = test system: healthy intervertebral disc cell (HNPC); experiment: colorimetric tetrazolium salt (MTS) viability assay, HNPC; format: cell-based; settings: AD alone, 2.5 μM, 48 hours of incubation
[9] = Method: The sodium pentaborate pentahydrate compound was dissolved in the appropriate medium for the cell that was used and filtered to enable sterilization.
[10] = AD alone 2.5 μM, 48-hour incubation, dihydrochloride

dissolution in the medium ([9]; concentrations used (100-1000 μM), no additional solvent) | Compound | viability at 2.5 µM [1] [%] | effect on healthy cells ([2]; AD alone 2.5 μM, 48-hour incubation, hTert-HPNE and HNPC, dihydrochloride) | viability at 2.5 µM [3] [%] | solubility [4] [µg/mL] | viability of Psn-1 cells [5, 10] [%] | viability at 2.5 µM ([5]; Homo sapiens, PSN1, 48 h, read-out: viability of Psn-1 cells, AD alone 2.5 μM, 48-hour incubation) [%] | effect on healthy pancreas cell (hTert-HPNE) [6] | viability of AsPc-1 cells [7, 10] [%] | viability at 2.5 µM ([7]; Homo sapiens, ASPC1, 48 h, read-out: viability of AsPc-1 cells, AD alone 2.5 μM, 48-hour incubation) [%] | effect on healthy intervertebral disc cells (HNPC) [8] | average vitality ([2]; NAB alone 1000 μM, incubated for 48 hours, hTert-HPNE, HNPC, hFSSCs, HUVEC) [%] | precipitate formation in the medium ([9]; medium pH 7.4, 72 hours)
 | CCCCC(CC)CNC(=N)NC(=N)NCCCCCCNC(=N)NC(=N)NCC(CC)CCCC (stereo not shown) [AD, alexidine dihydrochloride] | 50 | did not harm the healthy cells; also recorded: do not kill the healthy cells | 53 | ≥ 10000 | 51.6 | 45 | not affected | 58.3 | 58 | not affected |  | 
dissolved instantly | sodium pentaborate pentahydrate [NAB] |  |  |  |  |  |  |  |  |  |  | 70 | did not form sodium pentaborate pentahydrate precipitate
